Measured values published in the supplement of paper PMC11208160.

Test: recombinant barcode read abundance after kanamycin selection (control-corrected) (log10(CPM+1)); higher = more efficient recombination; sequences stand for … in AGTGCAGAGAAAATCGGCCAGTTTTCTCTGCCTGCAGTCCGCATGCCGT…AGATTTATGCAGCGGACTGCCTTTCTCCCAAAGTGATAAACCGGACAGTATCATGGACCGGTTTTCCCGGTAATCCGTATTTGCAAGGTTGGTTTCACT; site = the 11-nt target
In short: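 Recombination efficiency was calculated from barcode counts at recombinant junctions, normalized to counts per million, averaged and corrected by the control. Each value is given as log10(CPM+1). The constructs were Gibson-cloned oligos (promoter, target, barcode, J23119-driven first 104 bridge RNA bases) in a vector with the remaining 73 bp and a T7-inducible recombinase, co-electroporated into E. coli with a donor plasmid and plated in duplicate on chloramphenicol/ampicillin LB agar (control) or chloramphenicol/ampicillin/kanamycin with 0.1 mM IPTG.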
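Note: IS621 recombinase and bridge RNA in Escherichia coli cells.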

Point of comparison: “GATGGGCCTTGGGTTCTAACCTGTTGCGT (site GCTGGGCCTTC)”, “recombinant barcode read abundance (log10)” value 0.246. Against it:
- GATATAGCTTGGGTTCTAACCTGTTGCCT (site GATAGAGCTCG) — higher, 0.54
- GATATAGCTTGGGTTCTAACCTGTTGCCT (site GATATAGCTAG) — higher, 1.06
- GATCAACCTTGGGTTCTAACCTGTTGCCT (site GATCAACCTAG) — higher, 1.62
- GATCAACCTTGGGTTCTAACCTGTTGCCT (site GCTCAACCTAG) — within 0.2 log units, 0.0583
- GATCAACCTTGGGTTCTAACCTGTTGCCT (site GGTCAACCTAG) — lower, 0.0197
- GATCAACCTTGGGTTCTAACCTGTTGCCT (site GTTCAACCTAG) — within 0.2 log units, 0.235
- GATCACCCTTGGGTTCTAACCTGTTGCAT (site CGAGTGTCTTA) — within 0.2 log units, 0.193
- GATCACCCTTGGGTTCTAACCTGTTGCAT (site GATCACCCTAT) — higher, 1.68
- GATCGATCTTGGGTTCTAACCTGTTGCAT (site GATCGATCTAA) — lower, 0.0308
- GATCGATCTTGGGTTCTAACCTGTTGCAT (site GATCGATCTAC) — within 0.2 log units, 0.163
- GATCGATCTTGGGTTCTAACCTGTTGCAT (site GATCGATCTAG) — within 0.2 log units, 0.307
- GATCGATCTTGGGTTCTAACCTGTTGCAT (site GATCGATCTAT) — higher, 0.666
- GATGAGACTTGGGTTCTAACCTGTTGCCG (site GATGAGACTCG) — higher, 2.22
- GATGAGACTTGGGTTCTAACCTGTTGCCG (site GCTGAGACTCG) — within 0.2 log units, 0.223
- GATGAGTCTTGGGTTCTAACCTGTTGCCT (site GATGAGTCTAA) — higher, 0.71
- GATGAGTCTTGGGTTCTAACCTGTTGCCT (site GATGAGTCTAG) — higher, 1.9
- GATGCCTCTTGGGTTCTAACCTGTTGCCT (site GAAGCATCTAG) — within 0.2 log units, 0.147
- GATGCCTCTTGGGTTCTAACCTGTTGCCT (site GATGCCTCTAG) — higher, 2.06
- GATGCGACTTGGGTTCTAACCTGTTGCCG (site GATGCGACTCG) — higher, 0.968
- GATGCGACTTGGGTTCTAACCTGTTGCCG (site GATGTGACTAG) — within 0.2 log units, 0.121
- GATGCTACTTGGGTTCTAACCTGTTGCCA (site GATCCTACTTG) — within 0.2 log units, 0.124
- GATGCTACTTGGGTTCTAACCTGTTGCCA (site GATGCTACTTG) — lower, 0.0236
- GATGCTTCTTGGGTTCTAACCTGTTGCTT (site AATGCTTCTAA) — within 0.2 log units, 0.101
- GATGCTTCTTGGGTTCTAACCTGTTGCTT (site GATGCTTCTAA) — within 0.2 log units, 0.223
- GATGGACCTTGGGTTCTAACCTGTTGCTA (site ATGTCTGCTAG) — lower, 0.0118
- GATGGACCTTGGGTTCTAACCTGTTGCTA (site GATGGACCTTA) — higher, 2.39
- GATGGCCCTTGGGTTCTAACCTGTTGCCT (site GATGGCCCTAG) — higher, 1.23
- GATGGCCCTTGGGTTCTAACCTGTTGCCT (site GCTGGCCCTAG) — within 0.2 log units, 0.103
- GATGGCCCTTGGGTTCTAACCTGTTGCCT (site GGTGGCCCTAG) — within 0.2 log units, 0.113
- GATGGCCCTTGGGTTCTAACCTGTTGCCT (site GTTGGCCCTAG) — within 0.2 log units, 0.127
- GATGGGCCTTGGGTTCTAACCTGTTGCGT (site GATGGGCCTAC) — higher, 2.54
